Ten compounds from ChEMBL document CHEMBL1201862, “PubChem BioAssay data set” (2004) can be followed below.

What all share (assay): NCI anticancer screen, dose series, 48 h
The subject of experiment [1] is CCRF-CEM.
The test system of experiment [2] is RPMI-8226.
The subject of experiment [3] is UACC-62.
Experiment [4] deals with UO-31.
Experiment [5] relates to SK-MEL-5.
The test system of experiment [6] is IGROV-1.
In experiment [7] the test system is 786-0.
Experiment [8] deals with MDA-N.
For experiment [9], the system named is CAKI-1.
The subject of experiment [10] is A549.
In experiment [11] the test system is NCI-H522.
Experiment [12] has as its system K562.
In experiment [13] the test system is LOX IMVI.
Experiment [14] concerns OVCAR-3.
The test system of experiment [15] is KM12.
Experiment [16] has as its system MDA-MB-435.
Experiment [17] concerns MOLT-4.
In experiment [18] the test system is SF-268.
Experiment [19] concerns SW-620.

Molecules are shown by their SMILES.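 Five compound concentrations were applied to cells in 96-well plates for 48 hours; endpoints were derived by simple linear interpolation of the resulting dose-response curve. Abbreviation: GI50, concentration required for 50% inhibition of growth.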 Active and inactive are the calls of the source. Cut-off read from the data, not from the text of the source: active = GI50 up to about 1.1 µM and inactive = higher.

For `COc1ccc(NC2C(=O)C3(C)CCC2C3(C)C)cc1` (stereo not given), the GI50 was > 100 µM (inactive) in experiment [1]; 52.2 µM (inactive) in experiment [2]; > 100 µM (inactive) in experiment [3]; 54.7 µM (inactive) in [4]; 34.5 µM (inactive) in [5]; > 100 µM (inactive) in experiment [6]. Moreover, the GI50 in [7] was > 100 µM (inactive); in [8], > 100 µM (inactive); in experiment [9], > 100 µM (inactive); in experiment [10], > 100 µM (inactive); in experiment [11] it was 79.4 µM (inactive); in [12] it was 63.7 µM (inactive). The GI50 in experiment [13] is > 100 µM (inactive); in experiment [14], > 100 µM (inactive); in [15] it was > 100 µM (inactive); in experiment [16], > 100 µM (inactive); in experiment [17], 67.8 µM (inactive); in [18] it was > 100 µM (inactive). Also, in experiment [19], the GI50 was > 100 µM (inactive).
With `CCCc1[nH]nc(C(N)=O)c1/N=N/N(C)C`, the GI50 in [1] was 27 µM (inactive); in experiment [2] it was 39.4 µM (inactive); in experiment [3], 36.9 µM (inactive); in [4] it was 1.16 µM (inactive); in experiment [5] it was 50.1 µM (inactive); in experiment [6] it was 28.5 µM (inactive). Besides, the GI50 was 65.5 µM (inactive) in experiment [7]; > 100 µM (inactive) in [8]; 28.4 µM (inactive) in [9]; 42.4 µM (inactive) in [10]; 17.8 µM (inactive) in experiment [11]; 2.56 µM (inactive) in experiment [12]. For the same compound, the GI50 in [13] was 47 µM (inactive); in experiment [14], > 100 µM (inactive); in [15], 37.1 µM (inactive); in [16] it was > 100 µM (inactive); in experiment [17], 15 µM (inactive); in [18], 36.9 µM (inactive). For the same compound, the GI50 in experiment [19] is 63.7 µM (inactive).
On to `c1cc2c(cc1NC1=NCCO1)OCO2`, for which the GI50 in experiment [1] is 12.9 µM (inactive); in [2], > 100 µM (inactive); in experiment [3], > 100 µM (inactive); in [4], > 100 µM (inactive); in [5] it was > 100 µM (inactive); in experiment [6], > 100 µM (inactive). Also, the GI50 in [7] is > 100 µM (inactive); in [8], 42.2 µM (inactive); in experiment [9] it was > 100 µM (inactive); in experiment [10] it was > 100 µM (inactive); in experiment [11], > 100 µM (inactive); in experiment [12], 11.9 µM (inactive). The GI50 in experiment [13] is > 100 µM (inactive); in experiment [14], > 100 µM (inactive); in experiment [15], > 100 µM (inactive); in experiment [16], 50.4 µM (inactive); in experiment [17] it was > 100 µM (inactive); in experiment [18], > 100 µM (inactive). Further, in [19], the GI50 is > 100 µM (inactive).
Consider `O=C(c1ccccc1)C(C(=O)c1ccccc1)c1nc2ccccc2sc1=O`, for which the GI50 in experiment [1] was 6.24 µM (inactive); in [2], 7.18 µM (inactive); in experiment [3] it was 7.11 µM (inactive); in [4], 10.4 µM (inactive); in [5], 15.6 µM (inactive); in experiment [6], 8.11 µM (inactive). Also, the GI50 was 12.1 µM (inactive) in [7]; > 25 µM (inactive) in experiment [8]; 13.1 µM (inactive) in [9]; 8.91 µM (inactive) in experiment [10]; 9.57 µM (inactive) in experiment [11]; 12 µM (inactive) in [12]. The GI50 was 9.68 µM (inactive) in [13]; > 25 µM (inactive) in experiment [14]; 12.6 µM (inactive) in [15]; 10.4 µM (inactive) in experiment [16]; 8.09 µM (inactive) in experiment [17]; > 25 µM (inactive) in experiment [18]. In experiment [19], the GI50 is 15.9 µM (inactive).
As for `Cc1ccc(S(=O)(=O)N/N=C2/CCCOC2)cc1`, the GI50 in [1], in [2], in [3], in experiment [4], in [5] and in [6] was > 100 µM (inactive) each time. Moreover, the GI50 in experiment [7], in experiment [8], in [9], in experiment [10], in [11] and in experiment [12] was > 100 µM (inactive) each time. Further, the GI50 in experiment [13], in experiment [14], in [15], in experiment [16], in experiment [17] and in [18] was > 100 µM (inactive) in each case. Besides, in [19], the GI50 was > 100 µM (inactive).
For `Cc1cn2c(/C=C3/C(=O)Nc4ccccc43)c(-c3ccccc3)nc2s1`, the GI50 was > 100 µM (inactive) in [1]; > 100 µM (inactive) in [2]; 67.6 µM (inactive) in experiment [3]; 23.2 µM (inactive) in experiment [4]; 71.1 µM (inactive) in experiment [5]; 40.5 µM (inactive) in experiment [6]. The GI50 is 17.2 µM (inactive) in experiment [7]; > 100 µM (inactive) in experiment [8]; > 100 µM (inactive) in [9]; > 100 µM (inactive) in experiment [10]; > 100 µM (inactive) in experiment [11]; > 100 µM (inactive) in [12]. The GI50 is 91 µM (inactive) in [13]; 85.3 µM (inactive) in [14]; > 100 µM (inactive) in experiment [15]; > 100 µM (inactive) in experiment [16]; > 100 µM (inactive) in experiment [17]; 31 µM (inactive) in experiment [18]. The GI50 in experiment [19] is 64.4 µM (inactive).
In the case of `O=C(NNC(=O)c1ccco1)c1ccco1`, the GI50 in experiment [1], in experiment [2], in experiment [3], in experiment [4], in [5] and in experiment [6] was > 100 µM (inactive) in each case. The GI50 in [7] was > 100 µM (inactive); in [8] it was > 100 µM (inactive); in experiment [9], > 100 µM (inactive); in [10], > 100 µM (inactive); in experiment [11] it was 15 µM (inactive); in experiment [12], > 100 µM (inactive). Moreover, the GI50 in experiment [13], in [14], in experiment [15], in experiment [16], in experiment [17] and in experiment [18] was > 100 µM (inactive) each time. The GI50 in experiment [19] was > 100 µM (inactive).
On to `C[C@H](C1CC(C)(O)C(C)(O)C(O)O1)[C@H]1CC[C@H]2[C@@H]3[C@@H]4O[C@@H]4[C@@]4(O)CC=CC(=O)[C@]4(C)[C@H]3CC[C@]12C` (stereo not given in full), for which the GI50 in experiment [1] was > 50 µM (inactive); in experiment [2] it was > 50 µM (inactive); in experiment [3], > 50 µM (inactive); in experiment [4] it was 7.55 µM (inactive); in [5], > 50 µM (inactive); in experiment [6], > 50 µM (inactive). The GI50 in experiment [7] was 15.5 µM (inactive); in experiment [8], > 50 µM (inactive); in experiment [9], > 50 µM (inactive); in experiment [10] it was > 50 µM (inactive); in experiment [11], 18.2 µM (inactive); in experiment [12] it was > 50 µM (inactive). In addition, the GI50 in [13] was > 50 µM (inactive); in experiment [14] it was > 50 µM (inactive); in [15] it was > 50 µM (inactive); in experiment [16], > 50 µM (inactive); in experiment [17] it was > 50 µM (inactive); in [18], 5.31 µM (inactive). In addition, the GI50 in experiment [19] is > 50 µM (inactive).
For the compound `Cc1ccc2c(/C=C/c3ccc(N(C)C)cc3)ccc(C(C)C)cc1-2`, the GI50 is 37.2 µM (inactive) in experiment [1]; > 100 µM (inactive) in experiment [2]; > 100 µM (inactive) in experiment [3]; > 100 µM (inactive) in experiment [4]; 22 µM (inactive) in [5]; > 100 µM (inactive) in experiment [6]. Besides, the GI50 in experiment [7] was > 100 µM (inactive); in experiment [8], > 100 µM (inactive); in experiment [9], > 100 µM (inactive); in [10], > 100 µM (inactive); in [11] it was 99.3 µM (inactive); in [12], > 100 µM (inactive). Also, the GI50 in experiment [13], in experiment [14], in [15], in experiment [16], in [17] and in [18] was > 100 µM (inactive) each time. Further, in [19], the GI50 was > 100 µM (inactive).
For the compound `CC(Cl)(CCC(Cl)C(C)(C)Cl)C(=O)CBr` (stereo not given), the GI50 in [1] was 0.877 µM (active); in experiment [2], 2.25 µM (inactive); in [3], 10.1 µM (inactive); in [4], 9.31 µM (inactive); in experiment [5], 8.49 µM (inactive); in [6] it was 13.3 µM (inactive). Besides, the GI50 is 7.94 µM (inactive) in experiment [7]; 8.2 µM (inactive) in experiment [8]; 14 µM (inactive) in experiment [9]; 19.5 µM (inactive) in [10]; 1.95 µM (inactive) in experiment [11]; 2.88 µM (inactive) in experiment [12]. In addition, the GI50 in experiment [13] is 2.06 µM (inactive); in experiment [14] it was 15.4 µM (inactive); in experiment [15], 15.6 µM (inactive); in experiment [16] it was 14.2 µM (inactive); in [17], 1.21 µM (inactive); in [18] it was 16.7 µM (inactive). In addition, the GI50 in experiment [19] is 2.18 µM (inactive).
